Entries after “also recorded” stand apart in the source; their conditions may differ. Where two headings read alike, the source gives them in different places. Marks after values point to notes of the source that are not given here.
What was measured:
[1] = Storage stability of prior art Form C; format: physicochemical; settings: room temperature, a month; found by the inventors
Description: The prior art WO2016205762A disclosed Form A, Form B and Form C of EB-1020.

[2] = 40° C./75% RH, two weeks; per WO2016205762A paragraph [00232]; cited from earlier work
[3] = Grinding stability of Form CS1, prior art Form A and Form B; format: physicochemical; settings: ground manually for 5 minutes in a mortar, XRPD, hydrochloride
Protocol: A certain amount of Form CS1, prior art Form A and Form B were ground manually for 5 minutes in a mortar. The XRPD patterns of Form CS1 before and after grinding are as depicted in FIG. 8 (top: before grinding; bottom: after grinding). The XRPD patterns of prior art Form A before and after grinding are as depicted in FIG. 9 (top: before grinding; bottom: after grinding). The XRPD patterns of prior art Form B before and after grinding are as depicted in FIG. 10 (top: before grinding; bottom: after grinding).

[4] = Kinetic solubility in FaSSIF and FeSSIF; format: physicochemical; settings: for Solubility (mg/mL) eSSIF / Solubility (mg/mL) FaSSIF: hydrochloride
Description: High Performance Liquid Chromatography (HPLC) data for solubility test in the present disclosure were collected from an Agilent 1260 with Diode Array Detector (DAD). The method parameters are as follows:
Simulated gastrointestinal fluids such as FaSSIF (Fasted state simulated intestinal fluids) and FeSSIF (Fed state simulated intestinal fluids) are biorelevant media. Solubility in such media is close to in vivo solubility, because these media can reflect the effects of intestinal environment on drug release better.
A certain amount of Form CS1, prior art Form A and Form B were suspended in FaSSIF and FeSSIF to get saturated solutions. After equilibration for 4 h, concentrations (mg/mL) of the saturated solutions were measured by HPLC.

[5] = Morphology (polarizing microscope, PLM); format: physicochemical
Description: Morphology of Form CS1 of the present disclosure was checked by a polarizing microscope (PLM), and the PLM image is shown in FIG. 11. […] Form CS1 has better flowability and is more suitable for processing and preparing drug product.

[6] = Physical stability of Form CS1 under different pressures (tableting); format: physicochemical; settings: for Crystalline form after tableting: XRPD
Description: A certain amount of Form CS1 were compressed into pellets under different pressures with suitable tableting die. Crystalline forms before and after tableting were checked by XRPD.

[7] = Adhesiveness of Form CS1 (material sticking to the punch); format: physicochemical
Protocol: 30 mg of Form CS1 were weighed and then added into the dies of φ8 mm round tooling, compressed at 10 KN and held for 30s. The punch was weighed and the amount of material sticking to the punch was calculated. The compression was repeated twice and the cumulative amount, maximum amount and average amount of material sticking to the punch during the compression were recorded.

[8] = Compressibility of Form CS1 (tensile strength); format: physicochemical
Protocol: A manual tablet press was used for compression. A certain amount of Form CS1 were added into the dies of round tooling and compressed at certain pressure manually, the tablet was stored in a desiccator for 24 h until complete elastic recovery. Hardness (H) was tested with an Intelligent Tablet Hardness Tester. Diameter (D) and thickness (L) were tested with a caliper. Tensile strength of the powder was calculated with the following formula: T=2H/πDL. Under a certain force, the greater the tensile strength, the better the compressibility.

[9] = according to WO2016205762A paragraph [00179]; cited from earlier work
[10] = 30 mg, φ8 mm round tooling, 10 KN, held 30s
[11] = φ6 mm round tooling, 80 mg, 10 kN, after 24 h elastic recovery
[12] = FaSSIF, equilibration 4 h, HPLC

Cl.c1ccc2cc([C@]34CNC[C@H]3C4)ccc2c1 [Form C, (1R,5S)-1-(naphthalen-2-yl)-3-azabicyclo[3.1.0]hexane hydrochloride]
Crystalline form after storage [1]: converted to Form A
Crystalline form after storage [2]: converted to a mixture of Form A and Form B

Cl.c1ccc2cc([C@]34CNC[C@H]3C4)ccc2c1 [Form CS1, (1R,5S)-1-(naphthalen-2-yl)-3-azabicyclo[3.1.0]hexane hydrochloride]
Crystalline form after grinding [3]: remains unchanged
Crystallinity after grinding [3]: remained substantially unchanged; also recorded: little change in crystallinity
solubility at 4 h ([4]; FaSSIF (fasted state simulated intestinal fluid), fassif, thermodynamic from solid, FaSSIF, equilibration 4 h, HPLC, read-out: Solubility (mg/mL) FaSSIF): 75.3 mg/mL
Solubility compared with prior art Form A and Form B ([4]; FaSSIF and FeSSIF): higher
Solubility relative to prior art Form A and Form B ([4]; FeSSIF): almost twice
Solubility (mg/mL) eSSIF ([4]; equilibration 4 h, HPLC): 74.8 mg/mL
Morphology [5]: spherical or short rod-like crystal
Crystalline form after tableting ([6]; Pressure 3 kN): Form CS1
Crystalline form after tableting ([6]; Pressure 7 kN): Form CS1
Crystalline form after tableting ([6]; Pressure 14 kN): Form CS1
Crystalline form after compression into tablets under different pressures ([6]; different pressures): remains unchanged
Adhesiveness [7]: low adhesiveness
Average amount (mg) of material sticking to the punch [7, 10]: 0* mg
Cumulative amount (mg) of material sticking to the punch [7, 10]: 0* mg
Maximum amount (mg) of material sticking to the punch [7, 10]: 0.07 mg
Compressibility [8]: good compressibility
Tensile strength (MPa) ([8]; T=2H/πDL, φ6 mm round tooling, 80 mg, 10 kN): 1.04 MPa
Diameter (mm) [8, 11]: 6.95 mm
Thickness (mm) [8, 11]: 2.40 mm

Cl.c1ccc2cc([C@]34CNC[C@H]3C4)ccc2c1 [prior art Form A, (1R,5S)-1-(naphthalen-2-yl)-3-azabicyclo[3.1.0]hexane hydrochloride, reference compound]
Crystallinity after grinding [3]: decreased obviously
Crystallinity after grinding ([3]; listed as Form A): obvious decrease of crystallinity
Solubility (mg/mL) FaSSIF [4, 12]: 46.9 mg/mL
Solubility (mg/mL) eSSIF ([4]; equilibration 4 h, HPLC): 36.0 mg/mL
Morphology [9]: needle-like crystals

Cl.c1ccc2cc([C@]34CNC[C@H]3C4)ccc2c1 [prior art Form B, (1R,5S)-1-(naphthalen-2-yl)-3-azabicyclo[3.1.0]hexane hydrochloride, reference compound]
Crystalline form after grinding [3]: changed
Crystalline form after grinding ([3]; listed as Form B): partially converts to Form A
Solubility (mg/mL) FaSSIF [4, 12]: 52.0 mg/mL
Solubility (mg/mL) eSSIF ([4]; equilibration 4 h, HPLC): 29.2 mg/mL
Morphology [9]: needle-like crystals
